In the NIST ThermoML archive (doi:10.1021/je4004542):
Several values for one entry are separate records, joined by “and”; a condition that tells them apart may be missing. Equal values may be shown once.

Conditions: for mass density: Liquid, isochoric method; for surface tension liquid-gas: Ring tensiometer

CC(F)(F)CC(F)(F)F [1,1,1,3,3-pentafluorobutane]
Conditions | mass density [kg/m3]
237.49 K, 3052.4 kPa | 1382.79
238.27 K, 4040.1 kPa | 1382.71
239.08 K, 5074 kPa | 1382.22
239.08 K, 5081.7 kPa | 1382.63
243.12 K, 10185 kPa | 1382.22
247.08 K, 15188 kPa | 1381.81
247.43 K, 956.6 kPa | 1361.21
248.25 K, 1931.8 kPa | 1361.13
249.22 K, 3081.2 kPa | 1361.03
250.2 K, 4243.7 kPa | 1360.94
250.92 K, 19991 kPa | 1381.43
250.93 K, 5088.8 kPa | 1360.86
255 K, 25056 kPa | 1381.02
255.26 K, 10152 kPa | 1360.44
258.99 K, 29998 kPa | 1380.62
259.5 K, 15102 kPa | 1360.02
260.21 K, 1298.1 kPa | 1336.72
261.05 K, 2152.9 kPa | 1336.64
261.98 K, 3278.8 kPa | 1336.55
262.73 K, 4030.2 kPa | 1336.48
262.97 K, 34873 kPa | 1380.23
263.72 K, 19989 kPa | 1359.61
263.74 K, 5132.2 kPa | 1336.38
267.12 K, 39916 kPa | 1379.82
268.05 K, 24964 kPa | 1359.2
268.32 K, 10033 kPa | 1335.95
272.35 K, 29861 kPa | 1358.79
273.08 K, 15145 kPa | 1335.5
273.72 K, 1076.8 kPa | 1309.97
274.73 K, 2060 kPa | 1309.88
275.63 K, 2942.2 kPa | 1309.8
276.61 K, 3921.9 kPa | 1309.71
276.83 K, 34914 kPa | 1358.36
277.65 K, 4903.9 kPa | 1309.61
277.66 K, 19995 kPa | 1335.08
281.43 K, 40068 kPa | 1357.92
282.34 K, 24894 kPa | 1334.64
282.69 K, 10162 kPa | 1310.01
287.06 K, 29792 kPa | 1334.21
287.75 K, 1242 kPa | 1280.22
287.79 K, 15107 kPa | 1309.56
288.9 K, 2019.2 kPa | 1280.13
290.22 K, 3193 kPa | 1280.01
291.35 K, 4070.9 kPa | 1279.92
292.09 K, 35022 kPa | 1333.75
292.96 K, 5455.1 kPa | 1279.78
292.96 K, 20092 kPa | 1309.09
296.9 K, 39956 kPa | 1333.31
297.78 K, 24667 kPa | 1308.67
298.16 K, 10021 kPa | 1279.33
298.57 K, 1157.4 kPa | 1258.72
299.69 K, 2006.3 kPa | 1258.62
301.02 K, 3084.3 kPa | 1258.51
302.24 K, 4081.3 kPa | 1258.41
303.22 K, 29830 kPa | 1308.18
303.47 K, 5080.2 kPa | 1258.31
303.85 K, 15147 kPa | 1278.84
308.65 K, 34947 kPa | 1307.7
309.5 K, 20037 kPa | 1278.36
309.51 K, 9974.6 kPa | 1257.8
309.96 K, 1066.8 kPa | 1234.65
311.31 K, 2069.7 kPa | 1234.54
312.57 K, 3017.8 kPa | 1234.43
313.89 K, 4006.1 kPa | 1234.33
314.06 K, 40001 kPa | 1307.23
315.23 K, 5013.4 kPa | 1234.22
315.28 K, 25013 kPa | 1277.86
315.8 K, 15053 kPa | 1257.28
321.09 K, 29987 kPa | 1277.37
322.04 K, 20055 kPa | 1256.76
322.05 K, 10082 kPa | 1233.67
322.3 K, 1278.8 kPa | 1207.34
323.48 K, 1919.7 kPa | 1207.25
325.25 K, 3125.1 kPa | 1207.12
326.62 K, 4057.4 kPa | 1207.01
326.99 K, 34967 kPa | 1276.87
327.9 K, 4926.1 kPa | 1206.91
328.32 K, 25047 kPa | 1256.24
328.8 K, 15073 kPa | 1233.12
333.06 K, 40085 kPa | 1276.36
334.62 K, 30028 kPa | 1255.72
335.52 K, 1037.9 kPa | 1175.56
335.52 K, 10079 kPa | 1206.32
335.52 K, 20025 kPa | 1232.59
337.15 K, 2014.4 kPa | 1175.44
338.81 K, 3050.5 kPa | 1175.32
340.39 K, 4011 kPa | 1175.2
341.51 K, 35426 kPa | 1255.16
342.03 K, 5008.9 kPa | 1175.08
342.36 K, 25012 kPa | 1232.04
343.05 K, 15153 kPa | 1205.73
347.07 K, 39768 kPa | 1254.7
353.15 K, 11756 kPa | 1174.25
353.15 K, 21912 kPa | 1204.96
353.15 K, 32850 kPa | 1231.18

Conditions | surface tension liquid-gas
261.8 K | 19.87 mN/m
261.94 K | 19.66 mN/m
268.05 K | 19.19 mN/m
268.09 K | 19.01 mN/m
273.05 K | 18.56 mN/m and 18.41 mN/m
277.76 K | 18.08 mN/m and 17.98 mN/m
282.88 K | 17.57 mN/m
282.98 K | 17.42 mN/m
288.32 K | 17.05 mN/m
288.35 K | 16.88 mN/m
293.51 K | 16.3 mN/m
293.54 K | 16.29 mN/m
297.79 K | 15.81 mN/m
297.86 K | 15.92 mN/m
302.48 K | 15.41 mN/m
302.55 K | 15.38 mN/m
308.11 K | 14.66 mN/m
308.31 K | 14.65 mN/m

COC(F)(F)C(F)(F)C(F)(F)F [heptafluoropropyl methyl ether]
Conditions | mass density [kg/m3]
209.16 K, 1147.7 kPa | 1630.6
215.36 K, 9581.3 kPa | 1629.81
219.53 K, 15297 kPa | 1629.29
220.04 K, 1236.5 kPa | 1604.5
223 K, 19918 kPa | 1628.87
223.03 K, 4963.4 kPa | 1604.13
227.03 K, 9963.9 kPa | 1603.65
231.15 K, 15085 kPa | 1603.16
231.6 K, 910.5 kPa | 1576.15
232.59 K, 2030.9 kPa | 1576.04
233.44 K, 3013 kPa | 1575.94
234.26 K, 3948.9 kPa | 1575.84
235.13 K, 20005 kPa | 1602.69
235.25 K, 5067.3 kPa | 1575.72
239.34 K, 25172 kPa | 1602.2
239.68 K, 10109 kPa | 1575.21
243.19 K, 29834 kPa | 1601.75
244.03 K, 15038 kPa | 1574.72
244.63 K, 1009.9 kPa | 1544.86
245.59 K, 1998.3 kPa | 1544.75
246.51 K, 2962.6 kPa | 1544.65
247.39 K, 3900.7 kPa | 1544.55
247.5 K, 35024 kPa | 1601.26
248.47 K, 20022 kPa | 1574.22
248.53 K, 5046.1 kPa | 1544.43
251.72 K, 40059 kPa | 1600.78
252.99 K, 25061 kPa | 1573.71
253.35 K, 10014 kPa | 1543.89
257.43 K, 29986 kPa | 1573.22
258.16 K, 14929 kPa | 1543.37
258.74 K, 1019.7 kPa | 1509.93
259.75 K, 1914.3 kPa | 1509.82
260.88 K, 2987.6 kPa | 1509.7
261.92 K, 3946.9 kPa | 1509.59
262 K, 34997 kPa | 1572.72
263.02 K, 19886 kPa | 1542.85
263.07 K, 5031.9 kPa | 1509.47
266.61 K, 40003 kPa | 1572.21
267.97 K, 24863 kPa | 1542.32
268.54 K, 10046 kPa | 1508.89
273.04 K, 29941 kPa | 1541.78
273.95 K, 14959 kPa | 1508.34
274.52 K, 994.4 kPa | 1470.55
275.72 K, 1967.2 kPa | 1470.43
276.99 K, 3007.5 kPa | 1470.3
278.09 K, 34925 kPa | 1541.25
278.24 K, 4016.2 kPa | 1470.18
279.44 K, 4996 kPa | 1470.06
279.44 K, 19959 kPa | 1507.77
283.23 K, 39964 kPa | 1540.71
284.96 K, 24913 kPa | 1507.21
285.69 K, 10030 kPa | 1469.44
285.95 K, 1083.6 kPa | 1440.86
287.33 K, 2026 kPa | 1440.73
288.68 K, 3021.9 kPa | 1440.6
289.89 K, 3919.7 kPa | 1440.48
290.57 K, 29908 kPa | 1506.65
291 K, 4729.9 kPa | 1440.38
291.9 K, 15010 kPa | 1468.83
296.23 K, 34913 kPa | 1506.08
298.15 K, 9994.4 kPa | 1439.7
298.15 K, 19997 kPa | 1468.22
298.45 K, 987.1 kPa | 1407.52
300.45 K, 2316.3 kPa | 1407.33
301.51 K, 3015.6 kPa | 1407.24
302.03 K, 40008 kPa | 1505.49
303.04 K, 4032 kPa | 1407.09
304.36 K, 4907.1 kPa | 1406.97
304.43 K, 24980 kPa | 1467.62
305.45 K, 15319 kPa | 1439.01
310.78 K, 29953 kPa | 1467.01
312.11 K, 10022 kPa | 1406.27
312.12 K, 1009.6 kPa | 1369.41
312.57 K, 20469 kPa | 1438.34
313.79 K, 1997.3 kPa | 1369.27
315.49 K, 2985.1 kPa | 1369.12
317.16 K, 3966.3 kPa | 1368.97
317.19 K, 34932 kPa | 1466.39
318.7 K, 4864.6 kPa | 1368.84
319.58 K, 25523 kPa | 1437.69
319.65 K, 14861 kPa | 1405.59
323.78 K, 40025 kPa | 1465.77
326.44 K, 30424 kPa | 1437.05
327.49 K, 1098.2 kPa | 1324.67
327.49 K, 10016 kPa | 1368.08
327.51 K, 19990 kPa | 1404.89
329.49 K, 2043 kPa | 1324.5
331.48 K, 3053.3 kPa | 1324.34
333.43 K, 4045.4 kPa | 1324.18
333.47 K, 35408 kPa | 1436.41
335.24 K, 25016 kPa | 1404.19
335.37 K, 5030.2 kPa | 1324.02
335.65 K, 14779 kPa | 1367.37
340.74 K, 40506 kPa | 1435.74
342.96 K, 29980 kPa | 1403.51
344.67 K, 20018 kPa | 1366.6
345.22 K, 10048 kPa | 1323.21
353.15 K, 14072 kPa | 1322.56
353.15 K, 24901 kPa | 1365.87
353.15 K, 36576 kPa | 1402.6

Conditions | surface tension liquid-gas [mN/m]
261.81 K | 15.99
261.89 K | 15.89
267.86 K | 15.39
267.87 K | 15.34
272.93 K | 14.86
272.95 K | 14.85
277.8 K | 14.35
277.82 K | 14.4
282.63 K | 13.7
282.77 K | 13.93
287.73 K | 13.15
287.83 K | 13.47
292.56 K | 13.04
297.67 K | 12.54
